Columns and labels:
ZIKV [1] = assay: ZIKV-induced microcephaly and apoptosis after intracerebroventricular injection in mouse embryos (E12.5, analysed E18.5); assay type: in vivo; settings: for ZIKV-induced microcephaly / microcephalic phenotype: injected with ZIKV ICV at E12.5, E18.5 brains, vs vehicle
[2] = tested on: UPR effectors (PERK-ATF4 arm, IRE-1/Xbp1); assay: qRT-PCR of UPR effector expression levels in ZIKV-infected embryonic mouse brains; assay type: in vivo
From the text: (§1) To test the efficacy of Salubrinal and ISRIB (PERK inhibitors) in decreasing the expression levels of UPR effectors after ZIKV infection we intracerebroventricularly injected ZIKV+Salubrinal (or ISRIB) in E12.5 mouse cortices and collected brains at E18.5. These samples were stored in Trizol (Invitrogen) and RNA was extracted according to manufacturer instructions. RNA was then retro-transcribed and cDNA was used to perform qRT-PCR to quantify ZIKV and UPR effectors levels in each sample. […] The expression levels of several PERK pathway effectors were analyzed: mATF4 (FIG. 6B), mATF5 (FIG. 6C), mCHAC1 (FIG. 6D). […] (Kruskal-Wallis test, *p<0.05, ** p<0.005).
(§2) To test the efficacy of Resveratrol (IRE1a inhibitor) in decreasing the expression levels of UPR effectors after ZIKV infection we intracerebroventricularly injected ZIKV+Resveratrol in E12.5 mouse cortices and collected brains at E18.5. These samples were stored in Trizol (Invitrogen) and RNA was extracted according to manufacturer instructions. RNA was then retro-transcribed and cDNA was used to perform qRT-PCR to quantify ZIKV and UPR effectors levels in each sample. […] The expression levels of several PERK pathway effectors were analyzed: mATF4 (FIG. 7B), mATF3 (FIG. 7C), mXbp1 spliced/unspliced and mXbp1 tot (FIG. 7D), mChop (FIG. 7E).
Total RNA was obtained from micro-dissected embryonic mouse brains, and neuronal progenitors seeded in 6 well-plate culture dishes after application of Trizol according to the manufacturer's protocol (Ambion-Life Technologies, 15596018).
The quantity and quality of RNA were assessed by NanoDrop 1000 (Nano-Drop Technologies) before cDNA synthesis by SuperScript III reverse transcriptase (Invitrogen), as used according to the manufacturer's instructions. The resulting cDNA was used for quantitative PCR, using Faststart Universal SYBR Green Master (Roche) in an Applied Biosystem 7900HT Fast Real-Time PCR detection system (Applied Biosystems, Foster city, USA). The following genes of interest (GOI) were normalized to the reference genes β-actin, Glyceraldehyde-3-Phosphate dehydrogenase (GAPDH), hypoxanthine phosphoribosyltransferase 1 (HPRT1), and 36b4 ribosomal protein (36b4). Tested genes were GAPDH, HPRT1, 36B4, ACTIN, ZIKA, Atf4, Atf3, Atf5, Chac1, Chop, Sesn2, Tbr2, Neurod6, Tubb3, hPDI, Slc7a3, MX1, TLR3, HRD1, OCT4, NESTIN, PAX6, SOX1 and mPDI.

ZIKV [3] = assay: qRT-PCR quantification of ZIKV copies in ICV-injected embryonic mouse brains; assay type: in vivo; settings: for number of ZIKV copies: ICV co-injection with ZIKV at E12.5, brains at E18.5, vs ZIKV+DMSO, Kruskal-Wallis test
From the text: as §1, §2
The number of Zika particles in the samples analyzed by qRT-PCR (see above) was calculated as previously described (Lanciotti et al, 2008). Briefly, a standard curve was created by performing serial dilutions of a plasmid containing 76-bp long sequence from the Zika genome (from nt 1,086 to 1,162; GCF_000882815.3, as indicated in Nature Neurosciences (2018) Gladwyn et al.) and querying these dilutions by qRT-PCR analysis.
This standard curve allows the conversion of Cp of samples queried for Zika virus (as described above) into N^o of Zika copies/a L. We used the following formula to link this quantification to the amount of RNA retrotranscribed for the analysis of each sample: […]
Finally, the N^o of copies/μg RNA was divided for the relative concentration of each sample analyzed by qRT-PCR (since for each analyzed gene in this study we performed a relative quantification compared to the controls of the same experiment). The relative concentration of each sample is automatically calculated by the LightCycler480 and its accompanying software.

ZIKV [4] = assay: Neurogenic balance after intracerebroventricular ZIKV injection and in utero GFP electroporation of mouse embryos; assay type: in vivo; settings: co-administered with ZIKV ICV at E12.5, second injection at electroporation; E14.5; vs Mock-DMSO and Mock-PERKi
Procedure: To test whether the deregulation of UPR induced by ZIKV-infection results in the impairment of this neurogenic balance, we performed ICV injection of ZIKV in E12.5 mouse brains, followed by in utero electroporation of GFP-expressing plasmids one day later to fate-map APs at E14.5 (APs, immature IPs and IPs, neurons) (FIGS. 3A-B). The phenotype of the “direct progeny” of targeted APs was then assessed by immunohistochemistry (FIGS. 3B-D). In order to characterize the fate of GFP+ cells, we subdivided them into APs (Sox2+, Tbr2− or Tbr2−, Tbr1−), immature IPs (Sox2+, Tbr2+ or Tbr2+, Tbr1−), IPs (Sox2−, Tbr2+ or Tbr2+, Tbr1+), or neurons (Sox2−, Tbr2− or Tbr2−, Tbr1+).
To assess if ZIKV directly impacts the neurogenic balance through UPR deregulation in GFP labeled APs, we co-injected GSK2656157 (a PERK inhibitor, named PERKi) with ZIKV into the lateral ventricles of E12.5 embryos and repeated a second PERKi injection at the time of electroporation.
Embryonic (E) 14.5, E16.5 and E18.5 mouse brains were dissected in 0.1M phosphate-buffered saline pH7.4 (PBS), and were fixed in 4% paraformaldehyde (PFA in PBS) for one hour at room temperature, whereas human neural stem cells (hNSCs) were fixed in 4% PFA at 4° C. for 10 minutes. […]

ZIKV [5] = assay: Intraplacental (IPL) ZIKV injection in pregnant NMRI mice, cortical defects at E18.5; assay type: in vivo, mouse; settings: intraplacental ZIKV at E12.5, co-injection
[6] = high doses, ICV co-injection with ZIKV at E12.5, brains at E18.5, vs ZIKV+DMSO
[7] = ZIKV ICV at E12.5, E18.5, compared to vehicle treatment
[8] = single injection of 50M at time of infection (E12.5), E18.5

| SMILES | ZIKV-induced microcephaly / microcephalic phenotype (ZIKV [1]) | number of ZIKV copies (ZIKV [3]) | mATF4 expression level [2, 6] | mATF5 expression level [2, 6] | mCHAC1 expression level [2, 6] | also measured |
| --- | --- | --- | --- | --- | --- | --- |
| Cc1cc(=O)oc2c(C=O)c(O)ccc12 [4μ8C] | rescued the microcephalic phenotype |  |  |  |  | activation of the PERK-ATF4 UPR arm ([2]; ZIKV-infected mouse brains): prevented activation |
| O=C(COc1ccc(Cl)cc1)NC1CCC(NC(=O)COc2ccc(Cl)cc2)CC1 (centres unmarked) [ISRIB] |  | unaffected compared to controls | marked decrease | marked decrease | marked decrease |  |
| Cc1cccc(CC(=O)N2CCc3c2ccc(-c2cn(C)c4ncnc(N)c24)c3F)n1 [PERKi] | reduced ZIKV-induced microcephaly |  |  |  |  | imbalance between direct and indirect neurogenesis (proportions of APs, newborn IPs, IPs and neurons) (ZIKV [4]): remarkably corrected the imbalance between direct and indirect neurogenesis; brain weight (ZIKV [1]; [7]): significant improvement; cortical dimensions (brain width, length) (ZIKV [1]; [7]): significant improvement; numbers of neurons sitting in different cortical layers (ZIKV [1]; [7]): significant improvement; ER stress (ZIKV [1]; [8]): decreased; apoptosis (ac-caspase 3) (ZIKV [1]; [8]): decreased; ZIKV-induced cortical defects (cortical thickness, neuronal apoptosis, cytoarchitecture) (ZIKV [5]): rescued; ZIKV particles (ZIKV [3]; ZIKV-infected mouse brains treated with PERKi): not associated with a reduction |
| Oc1ccc(C=Cc2cc(O)cc(O)c2)cc1 [Resveratrol] |  | unaffected compared to controls | marked decrease |  |  | mATF3 expression level [2, 6]: marked decrease; mChop expression level [2, 6]: marked decrease |
| O=C(/C=C/c1ccccc1)NC(NC(=S)Nc1cccc2cccnc12)C(Cl)(Cl)Cl (centres unmarked) [Salubrinal] |  | unaffected compared to controls | marked decrease | marked decrease | marked decrease |  |
